{"source": "patent US20120165409A1", "about": "“WRINKLE-IMPROVING AGENT” (SHISEIDO COMPANY, LTD., priority 2005, published 2012)", "key": {"[1]": {"system": "Hr-1 (Skh-1) hairless mice", "assay": "Tests of wrinkle improvement on hairless mice (UVB-induced wrinkles)", "type": "in vivo", "details": "3% sample solution in 50% ethanol, 100 μL on back skin once a day, five times a week, versus solvent (50% ethanol), FIG. 1, statistically significant", "description": "Wrinkles were formed on Hr-1 (Skh-1) hairless mice (age 6 to 10 weeks) according to a partly modified version of the method of Schwartz et al. (see Haratake A. et al. J. Invest. Dermatol., 108, 769-775, 1997), in which the mice were repeatedly irradiated with UVB (see Naganuma M. et al. J. Dermatol. Sci., 25, 29-35, 2001; Schwartz E. J. Invest. Dermatol. 91, 158-161, 1988). Specifically, the backs [of the mice] were irradiated with UVB (light source: Toshiba FL-20 SE fluorescent lamp, made by Toshiba Electric) three times a week for ten weeks. The amount of irradiation after the treatment commenced was 36 mJ/cm^2/irradiation. […] The total irradiation amount was 4.6 J/cm^2. Values for the amount of ultraviolet light were measured used a UV radiometer (UVR-305/365D(II), [made by] Topcon). [After] irradiation with ultraviolet light was completed, photographs were taken of the backs of the mice, and the degree of wrinkle generation was scored according to the wrinkle evaluation standards given below using a partially modified version of the method of Bissett et al. (see Bissett, D. L., et al. Photochemistry and Photobiology, 46, 367-378, 1987). Scores of 0, 2, 4, 6, and 8 were used as standard values, and 1, 3, 5, and 7 were used as intermediate scores. […]\nThe degree of wrinkle improvement of the mice was determined in the following manner. […]"}, "[2]": {"system": "healthy male panelists having a large number of wrinkles", "assay": "Tests of improvement in wrinkles that form in the corners of the eyes (half-face blind test, replica analysis and survey)", "type": "in vivo", "details": "2.5 mass % in face lotion, human eye corners", "experimental": "Face lotions (an example and a comparative example) having the compositions given below were applied three times a day using the half-face method (blind tests) to the faces of healthy male panelists having a large number of wrinkles.\nReplicas of the eye corner portions to which lotion was applied were acquired using a SILFLO [apparatus] (Flexico Development Ltd.). The proportion of wrinkle area and the proportion of wrinkle volume were determined for before the application of the face lotion (0 M), after one month of application (1 M), and after two months of application (2 M). […] Both the wrinkle area proportion and the wrinkle volume proportion were determined by analyzing the replicas using a wrinkle-measuring apparatus employing a laser-cutting method (see Japanese Laid-Open Patent Application No. 7-113623).\nThe results of a survey concerning “Impressions of the Effectiveness of Wrinkle Improvement” sent to 23 test subjects are shown in Table 1."}}}
{"smiles": "O=C(O)CCNC(=O)c1ccccc1", "note": "[N-benzoyl-β-alanine]", "values": [{"measurement": "degree of wrinkle improvement (score before sample application − score after five weeks of sample application)", "setting": "[1]", "value": "reduction in wrinkles dramatically accelerated"}, {"measurement": "wrinkle-improving effect (overall conclusion of Example 2)", "setting": "[2]", "value": "had a wrinkle-improving effect"}]}
